This note sets out measurements from patent US20240090498A1, “ANTIMICROBIAL COMPOSITIONS” (TAKASAGO INTERNATIONAL CORPORATION, priority 2010, published 2024).

Common to all, as to assay type: cell-based
The test system of assay [1] is Pseudomonas aeruginosa ATCC 15422. Description: Vapor phase activity against bacteria (Example 2, growth grading versus control). Note: key: −: No Activity (growth); +: Slight Activity (some growth, but much less than control); ++: Medium Activity (pinprick growth); +++: High Activity (no growth). As to conditions: P.a. 15442; 7.1 or 9.3 mg/L as defined per composition; sealed 7 L box. Here is the method: (§1) Seeded brain heart infusion (BHI) agar plates of Escherichia coli ATCC 10536, Salmonella enterica ATCC13311, Pseudomonas aeruginosa ATCC 15422, Staphylococcus aureus ATCC 6538, Enterococcus faecalis ATCC 29212, and Enterococcus hirae ATCC 10541 were placed in sealed 7 L acrylic boxes and exposed to vapors of the compositions shown below. A control was established in which the agar plates was not treated with vapors. • Composition A: 9.3 mg/L of trans-2-hexenal • Composition B: 9.3 mg/L of trans-2-heptenal • Composition C: 9.3 mg/L of 2, 4-heptadienal • Composition D: 7.1 mg/L of trans-2-hexenal • Composition E: 7.1 mg/L of 2,4-heptadienal • Composition F: 7.1 mg/L of 2,4-heptadienal+citronellol (1:1) • Composition G: 9.3 mg/L of citronellal+citral DMA (1:1) • Composition H: 9.3 mg/L of benzaldehyde+citral DMA (1:1) • Composition I: 9.3 mg/L of furfural+citronellol (1:1) • Composition J: 7.1 mg/L of citral+citronellal (1:1) • Composition K: 7.1 mg/L of trans-2-hexenal+citronellol (1:1)

The subject of assay [2] is Enterococcus hirae ATCC 10541. The assay is described as above. As to conditions: E.h 10541; 7.1 or 9.3 mg/L as defined per composition; sealed 7 L box. Here is the method: as §1
The subject of assay [3] is Salmonella enterica ATCC13311. The assay is described as above. More on the design: key to the marks not given beside the values. As to conditions: S.e. 13311; 7.1 or 9.3 mg/L as defined per composition; sealed 7 L box. Here is the method: as §1
For assay [4], the system named is Enterococcus faecalis ATCC 29212. The description is as above. As to conditions: E.f. 29212; 7.1 or 9.3 mg/L as defined per composition; sealed 7 L box. On the set-up: key to the marks not given beside the values. Here is the method: as §1
For assay [5], the system named is Escherichia coli ATCC 10536. Described as above. On the set-up: key to the marks not given beside the values. The conditions noted are these: E.c. 10536; 7.1 or 9.3 mg/L as defined per composition; sealed 7 L box. Here is the method: as §1
Assay [6] deals with Staphylococcus aureus ATCC 6538. Described as above. On the set-up: key to the marks not given beside the values. As to conditions: S.a. 6538; 7.1 or 9.3 mg/L as defined per composition; sealed 7 L box. Here is the method: as §1
The subject of assay [7] is Pseudomonas aeruginosa ATCC 15422. The experiment in a line: Vapor phase MIC / combined FIC on seeded BHI agar plates in sealed 7 L box. As to conditions: ATCC15422, 72 h, P. aeruginosa, no growth after 3 days at room temperature, read-out: MIC alone (single material, vapor phase). The source says: (§2) Seeded brain heart infusion (BHI) agar plates of Escherichia coli ATCC 10536, Salmonella enterica ATCC13311, Pseudomonas aeruginosa ATCC 15422, Staphylococcus aureus ATCC 6538, Enterococcus faecalis ATCC 29212, and Enterococcus hirae ATCC 10541 were placed in sealed 7 L acrylic boxes and exposed to vapors of trans-2-alkenals (C6 to C11 carbon chain length) and mustard essential oil (MEO) binary combinations.
(§3) The trans-2-alkenals and MEO were weighed neat into a glass jar which was positioned in the box between the seeded agar plates. The concentration of the single materials and binary combinations introduce in the 7 L box were expressed as weight per unit volume of the box (mg/L). Several concentrations ranging from 0.5 mg/L to 43 mg/L of the single materials and combinations were tested for each organism. The vapor phase minimum inhibition concentration (MIC) with “no growth” after 3 days of incubation at room temperature. Fractional Inhibition Concentrations (FIC) was determined to evaluate the antibacterial effect of trans-2-alkenals and MEO combinations in the vapor phase based on the following formula:
(§4) Combined FIC=(MIC of trans-2-alkenalcombination/MIC of trans-2-alkenalalone)+(MIC of MEOcombination/MIC of MEOalone)
(§5) Combined FIC values for trans-2-alkenals and MEO combinations are shown below in Table 1. Combinations with combined FIC equal or less than 0.5 are considered to have a strong synergistic effect.

The subject of assay [8] is Salmonella enterica ATCC13311. Described as above. The conditions noted are these: ATCC13311, 72 h, S. enterica, no growth after 3 days at room temperature, read-out: MIC alone (single material, vapor phase).
From the text: as §2, §3, §4, §5

Assay [9] has as its system Enterococcus faecalis ATCC 29212. The description is as above. The conditions noted are these: ATCC29212, 72 h, E. faecalis, no growth after 3 days at room temperature, read-out: MIC alone (single material, vapor phase).
From the text: as §2, §3, §4, §5

The subject of assay [10] is Escherichia coli ATCC 10536. The description is as above. As to conditions: ATCC10536, 72 h, E. coli, no growth after 3 days at room temperature, read-out: MIC alone (single material, vapor phase).
From the text: as §2, §3, §4, §5

Assay [11] concerns Staphylococcus aureus ATCC 6538. The assay is described as above. As to conditions: ATCC6538, 72 h, S. aureus, no growth after 3 days at room temperature, read-out: MIC alone (single material, vapor phase).
From the text: as §2, §3, §4, §5

Assay [12] has as its system Enterococcus hirae ATCC 10541. Described as above. The conditions noted are these: ATCC10541, 72 h, E. hirae, no growth after 3 days at room temperature, read-out: MIC alone (single material, vapor phase).
From the text: as §2, §3, §4, §5

The subject of the next assay is S.e. 13311. Description: MIC in solution. The conditions noted are these: Salmonella enterica. The method, then: (§6) MIC values were also determined for trans-2 octenal, octanal formulations, and MEO in solution and in the vapor phase.
A further assay has as its system E.h. 10541. The experiment in a line: MIC in solution. As to conditions: Enterococcus hirae. Here is the method: as §6
The next assay deals with P.a. 15442. Description: MIC in solution. As to conditions: Pseudomonas aeruginosa. Here is the method: as §6
The subject of a further assay is S.a. 6538. The experiment in a line: MIC in solution. As to conditions: Staphylococcus aureus. The method, then: as §6
Another assay has as its system E.c. 10536. The experiment in a line: MIC in solution. As to conditions: Escherichia coli. The method, then:
as §6

Another assay concerns E.f. 29212. The experiment in a line: MIC in solution. As to conditions: Enterococcus faecalis. Here is the method:
as §6

Broadly, the MIC is the least concentration at which growth counts as inhibited.

`CCC/C=C/C=O` [Composition A, trans-2-hexenal]: the “Vapor Phase Activity Against Bacteria” value is given as “+++” in assay [1]; “+” in assay [2]; “+++” in [3]; “+++” in assay [4]; “+++” in [5]; “+++” in assay [6].
For the compound `CCCCCCCC=O` [octanal], the MIC amounted to 84.8 µg/mL in assay [7]; 42.4 µg/mL in assay [8]; 42.4 µg/mL in [9]; 21.1 µg/mL in assay [10]; 7.8 µg/mL in assay [11]; 42.4 µg/mL in [12]. The MIC with S.e. 13311, in the assay with E.h. 10541, in the assay on P.a. 15442, in the assay on S.a. 6538, with E.c. 10536 and in the assay on E.f. 29212 was over 125 µg/mL throughout.
As to `CCCCCC/C=C/C=O` [trans-2-nonenal], the MIC in [7] was found to be 43 µg/mL; in [9] it was 6.4 µg/mL; in assay [12], 6.4 µg/mL.
As to `CC/C=C/C=C/C=O` [Composition C, 2,4-heptadienal], the “Vapor Phase Activity Against Bacteria” value is on record as “+++” in assay [1]; “+” in assay [2]; “+++” in assay [3]; “+++” in assay [4]; “+++” in [5]; “+++” in [6].
For `CCCC/C=C/C=O` [trans-2-heptenal], the figures for the minimal inhibitory concentration (MIC) in assay [7], in [9] and in assay [12] were 25.6 µg/mL, 6.4 µg/mL and 12.8 µg/mL, respectively.
With `CCC/C=C/C=O` [trans-2-hexenal], the results for the MIC in [7], in [9] and in assay [12] were 12.8 µg/mL, 6.4 µg/mL and 12.8 µg/mL, respectively.
Consider `CCCCCCCC/C=C/C=O` [trans-2-undecenal], for which the MIC in [7] was found to be 43 µg/mL; in [9], 12.8 µg/mL; in assay [12], 12.8 µg/mL.
As to `CC/C=C/C=C/C=O` [Composition E, 2,4-heptadienal], the “Vapor Phase Activity Against Bacteria” value in [1] is on record as “++”; in [2], “+”; in assay [3] it was “+++”; in [4], “++”; in [5], “+++”; in assay [6] it was “+++”.
Turning to `CCCCC/C=C/C=O` [trans-2-octenal], the MIC in assay [7] was determined as 43 µg/mL; in assay [8], 43 µg/mL; in assay [9], 43 µg/mL; in assay [10] it was 43 µg/mL; in assay [11] it was 3.6 µg/mL; in assay [12], 25.6 µg/mL. Besides, the MIC in the assay with S.e. 13311, against E.h. 10541, against P.a. 15442, against S.a. 6538, in the assay with E.c. 10536 and against E.f. 29212 was over 125 µg/mL each time.
Consider `CCCCCCC/C=C/C=O` [trans-2-decenal], for which the MIC in [7] came out at 43 µg/mL; in assay [9], 6.4 µg/mL; in [12], 6.4 µg/mL.
With `CCCC/C=C/C=O` [Composition B, trans-2-heptenal], the “Vapor Phase Activity Against Bacteria” value is reported as “+” in [1]; “+++” in assay [2]; “+++” in assay [3]; “+++” in assay [4]; “+++” in assay [5]; “+++” in [6].
